Measured values as given in US9828630B2, “Methods of enhancing genetic diagnosis” (BioLamina AB, priority 2011, dated 2017).

Key:
human ES and iPS cells = assay: Long-term culture with single cell dissociation passaging; type: cell-based; conditions: for proliferation rate / increase in number of cells compared with Matrigel or classical methods: FIG. 8; for passages proliferated: O3 medium
Description: Human ES cells were cultured on r-laminin-521-coated laboratory dishes in chemically defined O3 medium (described in Rodin et al., Nature Biotechnol., vol. 28, pp. 611-615 (2010)) at 37° C. in 5% CO2. Cells were routinely passed once every 10-12 days by exposure to Trypsin-EDTA solution (GIBCO Invitrogen) for 5 minutes at 37° C. They were then gently pipetted to break into single-cell suspension and defined trypsin inhibitor (GIBCO Invitrogen) was added. The cell suspension was centrifuged […], the supernatant discarded, the cell pellet resuspended in prewarmed O3 medium, and cells were then passed through a 40 μm sieve. After that cells were plated on new r-laminin-521-coated dishes at a concentration 30 Kcells/cm^2 (1:25-1:30 split ratio). Cells were fed once a day with fresh medium prewarmed in an incubator for 1 hour, except for the first day after a passage, when only a few drops of fresh medium were added. Control cells of the same line were cultured on Matrigel (BD Biosciences) in O3 medium as described in Rodin et al., Nature Biotechnol., vol. 28, pp. 611-615 (2010). Control cells were passaged in pieces.
Human ES cells of HS181 and HS401 were cultured on LN-521-coated culture dishes in O3 medium (described in Rodin et al., Nature Biotechnol., vol. 28, pp. 611-615 (2010) with pH was adjusted to 7.35), mTeSR1 (STEMCELL Technologies) and chemically defined and xeno-free TeSR2 (STEMCELL Technologies) at 37° C., 5% CO2. Initially, cells of the lines were transferred onto a LN-521 coating from a human feeder cell layer by careful scratching using a sterile knife with subsequent trypsinization, or the cells were trypsinized into single cell suspension from a LN-511 coating. The cells were provided once a day with fresh medium pre-warmed in an incubator for one hour, except for the first day after plating, when only a few drops of fresh medium were added. Cells were routinely passed once in 10-12 days by exposure to Trypsin/EDTA (GIBCO Invitrogen Corporation, Paisley, Scotland) for 5 minutes at 37° C., 5% CO2. They were then gently pipetted to break into single-cell suspension and a Defined Trypsin Inhibitor (GIBCO Invitrogen) was added. The cell suspension was centrifuged at 25 rcf for 4 minutes, the supernatant was discarded, the cell pellet was resuspended in prewarmed O3 medium, and the cells were then passed through a 40 μm sieve. Subsequently, the cells were plated on new LN-521-coated dishes at a concentration of 30,000 cells/cm^2 in 1:25-1:30 split ratios. Control cells of the same line were cultured on Matrigel (STEMCELL Technologies) and LN-511 in O3 medium as described previously.^9
For defined and xeno-free cultures, TeSR2 (STEMCELL Technologies) medium and defined free from any animal derived component TrypLE™ Select (GIBCO Invitrogen Corporation, Paisley, Scotland) enzyme were used. The cells were passed every 10-14 days by exposure to TrypLE™ Select for 4-5 minutes at 37° C., 5% CO2. Then, the enzyme was carefully aspirated and prewarmed TeSR2 medium was added. After that, the cells were gently pipetted to break into single-cell suspension, centrifuged, the supernatant was discarded, and the cell pellet was resuspended in prewarmed TeSR2. The cells were then passed through a 40 μm sieve and plated on a fresh LN-521 coated dish.

human ES cells = assay: Real-time quantitative RT-PCR / marker expression of pluripotency and differentiation markers; type: cell-based
Description: Total RNA was isolated and cDNA was synthesized as described in Rodin et al., Nature Biotechnol., vol. 28, pp. 611-615 (2010). Real-time quantitative RT-PCR Taqman assays were performed using the Applied Biosystems 7300 Real-Time PCR System. All reactions were done in quadruplicate with predeveloped gene expression assay mix (Applied Biosystems) containing primers and a probe for the mRNA of interest. Additional reactions for each experiment included predeveloped gene expression assay mix for GAPDH, used to normalize the RNA input. All data were analyzed with 7300 System SDS Software version 1.4.
Total RNA was isolated using Absolutely RNA Microprep Kit (Stratagene, La Jolla Calif., www.stratagene.com) according to the manufacturer's instructions. cDNA was synthesized using 0.2 μg of total RNA in 20 μl reaction mixture, containing oligo(dT)12-18 primers and Superscript II reverse transcriptase (GIBCO Invitrogen Corporation), according to the manufacturer's instructions. Real-time quantitative RT-PCR Taqman assays were performed using the Applied Biosystems 7300 Real-Time PCR System (Applied Biosystems, Foster City, Calif.). All reactions were done in quadruplicates with the use of a pre-developed gene expression assay mix (Applied Biosystems) containing primers and a probe for the mRNA of interest. […] All data was analyzed with 7300 System SDS Software v 1.4.

hES cell lines = assay: Karyotyping; type: cell-based, human; conditions: HS181 12 and H1 10 passages in O3; H1 7 passages in TeSR2
Description: Karyotyping of the cell lines was carried out using standard Q-banding techniques. Samples of cells were treated with colcemid KaryoMAX (0.1 μg/ml; Gibco Invitrogen Corporation) for up to 4 hours, followed by dissociation with Trypsin/EDTA solution (Gibco Invitrogen Corporation). The cells were pelleted via centrifugation and re-suspended in pre-warmed 0.0375M KCl hypotonic solution and incubated for 10 minutes. Following centrifugation, the cells were resuspended in fixative (3:1 methanol:acetic acid). Metaphase spreads were prepared on glass microscope slides and G-banded by brief exposure to trypsin and stained with 4:1 Gurr's/Leishmann's stain (Sigma-Aldrich Co.). A minimum of 10 metaphase spreads were analyzed and additional 20 were counted.

ES cells = assay: Embryoid body formation; type: cell-based, human; conditions: cells cultured on LN-521, all three cases
Description: ES cells from LN-521 coated cell culture dishes were exposed to TrypLE™ Select for one minute at 37° C., 5% CO2, washes two times with a medium, broken into large pieces and cultured in suspension in low adhesion plates. The medium used for this was Knockout DMEM (GIBCO Invitrogen Corporation) supplemented with 2 mM L-glutamine, 20% fetal calf serum (GIBCO Invitrogen Corporation), 0.1 mM β-mercaptoethanol (GIBCO Invitrogen Corporation) and 1% non-essential amino acids (GIBCO Invitrogen Corporation). After 1-2 weeks in suspension, the embryoid bodies were transferred onto gelatin coated tissue cell culture 96-well plates (Sarstedt), cultured for 1-2 weeks, then fixed, stained with antibodies against markers of all three embryonic germ line layers (smooth muscle actin, MAP-2 and α-fetoprotein) and analyzed as described above for immunofluorescence.

“LN-521: protein formed by joining laminin α5, β2 and γ1 chains; human recombinant, produced in HEK293 cells” was tested, and the passages cultured (human ES and iPS cells; ChiPSW iPS cells, mTeSR1) was 3 passages, the “robust proliferation with stable and high rate” value (human ES and iPS cells; Example 1, O3 medium, 1:25 to 1:30, 3 months) was “at least 9 passages” and the “proliferation rate / increase in number of cells compared with Matrigel or classical methods” value (human ES and iPS cells) was “much faster rate”. The “proliferation rate / increase in number of cells compared with Matrigel or classical methods” value (human ES and iPS cells; listed as laminin-521) was “higher rate”, the passages proliferated (human ES and iPS cells; H1 cells, 6 months) was at least 15 passages and the passages proliferated (human ES and iPS cells; HS181 cells, 9 months) was “at least 24 passages”. The passages proliferated (human ES and iPS cells; HS401 cells, 2 months) was at least 5 passages, the “passages to undergo the same number of cell doublings as 20 passages (100 days / 3 months) by conventional methods on Matrigel” value (human ES and iPS cells; single cell suspension passaging, 1 month) was 3 passages and the “number of mRNA transcripts of pluripotency markers Oct4 and Nanog compared with Matrigel” value (human ES cells; FIG. 11) was “higher numbers of transcripts”. The “expression levels of pluripotency markers Oct4, Nanog and SSEA4” value (human ES cells; similar to cells on Matrigel passed as small clumps) was “stable expression levels”, the karyotype (hES cell lines) was “normal” and the “embryoid body formation with markers of mesoderm, ectoderm and endoderm” value (ES cells) was “retained the competence to form embryoid bodies”.
